# Reference: PubChem BioAssay AID1918993 (Molecular Pharmacology Branch, DTP, NCI, 2023)
# Tested on: 233499-124-R-J3-PDC complex spheroid growth
# Assay: Anticancer human tumor 233499-124-R-J3-PDC patient-derived colon adenocarcinoma cell line growth inhibition [AhR]
# Details: for IC50: curve of first compound; for viability, T/C: stronger effect = lower value
# From the text: Multicellular complex tumor spheroid response to aryl hydrocarbon receptor antagonists in combination with a variety of drugs and investigational agents in selected tumor cell lines
# The current study was undertaken to assess response to aryl hydrocarbon receptor antagonists in combination with standard-of-care drugs and investigational agents in solid tumor complex spheroid models. Complex spheroids include a stromal component modeled by human endothelial cells (HUVEC) and fibroblasts modeled by human mesenchymal stem cells (MSCs). The concentration ranges selected for each drug and investigational agent were based upon clinically achievable concentrations if the clinical Cmax of the agent was known.
# Compounds. The drugs and investigational agents: BAY 2416964 (NSC825713), GNF351 (NSC835774), CH-223191 (NSC835775), CPI-455 (NSC825282), aza-TdCyd (NSC777586), decitabine (NSC127716), belinostat (NSC758774), entinostat (NSC756642), pevonedistat (NSC761192), tazemetostat (NSC777109), talazoparib (NSC765396), olaparib (NSC753686), selinexor (NSC780203), nedisertib (M3814, NSC802822), bortezomib (NSC756655), venetoclax (NSC766270), doxorubicin (NSC123127), elimusertib (BAY189344, NSC800525), ceralasertib (AZD6738, NSC777638), TAK-243 (NSC785004), alisertib (NSC759677), etoposide (NSC141540), topotecan (NSC609699), eribulin (NSC707389), gemcitabine (NSC613327), carboplatin (NSC241240), cisplatin (NSC119875), and SN-38 (NSC673596) were obtained from the National Cancer Institute (NCI) Developmental Therapeutics Program Chemical Repository (32). The FDA-approved anticancer drug set is available from the Developmental Therapeutics Program at https://dtp.cancer.gov/organization/dscb/obtaining/available plates.htm. […] The stock solutions were prepared in dimethyl sulfoxide (DMSO, Sigma-Aldrich, St. Louis, MO, cat. D2650), except for the platinum compounds which were prepared in saline (Quality Biological, Gaithersburg, MD, cat. 114-055-101), at 800-fold the tested concentration and stored at -70 degrees C prior to their use. All drugs and investigational agents were tested over a range starting from a high concentration at or near the clinical Cmax and decreasing in half-log increments. If the clinical Cmax for an agent had not been determined, the highest concentration tested was 10 microM (Table 1).
# Cell Culture. All cells were maintained in an incubator at 37 degrees C and 5% CO2 with 95% humidity. The PDC lines were cultured according to standard operating procedures established by the NCI PDMR (https://pdmr.cancer.gov). Briefly, all PDCs were thawed and cultured in Matrigel-coated flasks prepared with a working solution of 1X Ham's F-12 nutrient mix, without supplementation (Invitrogen, Waltham, MA, cat. 11765054), 100 U/mL penicillin-streptomycin (Invitrogen, cat. 15140122), and 2.5% Matrigel (Corning Inc., Corning, NY, cat. 354248) for the first three passages. All PDCs were cultured in complete DMEM/F-12 media containing advanced DMEM/F-12 (Invitrogen, cat. 12634028), 4.9% defined fetal bovine serum, heat inactivated (HyClone Laboratories Inc., Logan, UT, cat. SH30070.03HI), 389 ng/mL hydrocortisone (Sigma-Aldrich, cat. H4001), 9.7 ng/mL human EGF recombinant protein (Invitrogen, cat. PHG0313), 23.4 microg/mL adenine (Sigma-Aldrich, cat. A2786), 97.3 U/mL penicillin-streptomycin (Invitrogen, cat. 15140122), 1.9 mM L-glutamine (Invitrogen, cat. 25030081), and 9.7 microM Y-27632 dihydrochloride (Tocris Bioscience, Bristol, United Kingdom, cat. 1254). The PDCs were cultured in complete DMEM/F12 media without 10 microM Y-27632 dihydrochloride for at least two passages prior to the screen. The established cell lines NCI-H1341 and […] were cultured in DMEM/F-12, HEPES (Invitrogen, cat. 11330032), 5% defined fetal bovine serum (HyClone Laboratories Inc., cat. SH30070.03), ITS premix universal culture supplement [insulin (5 microg/mL), transferrin (5 microg/mL), and selenious acid (5 ng/mL)] […]
# [1] = second compound 0.1 µM, first compound 0.0316 µM
# [2] = second compound 0.1 µM, first compound 0.1 µM
# [3] = second compound 0.1 µM, first compound 0.316 µM
# [4] = second compound 0.1 µM, first compound 1 µM
# [5] = second compound 0.1 µM, first compound 3.16 µM
# [6] = second compound 0.1 µM, first compound 10 µM
# [7] = second compound 0.316 µM, first compound 0.0316 µM
# [8] = second compound 0.316 µM, first compound 0.1 µM
# [9] = second compound 0.316 µM, first compound 0.316 µM
# [10] = second compound 0.316 µM, first compound 1 µM
# [11] = second compound 0.316 µM, first compound 3.16 µM
# [12] = second compound 0.316 µM, first compound 10 µM
# [13] = second compound 1 µM, first compound 0.0316 µM
# [14] = second compound 1 µM, first compound 0.1 µM
# [15] = second compound 1 µM, first compound 0.316 µM
# [16] = second compound 1 µM, first compound 1 µM
# [17] = second compound 1 µM, first compound 3.16 µM
# [18] = second compound 1 µM, first compound 10 µM
# [19] = second compound 3.16 µM, first compound 0.0316 µM
# [20] = second compound 3.16 µM, first compound 0.1 µM
# [21] = second compound 3.16 µM, first compound 0.316 µM
# [22] = second compound 3.16 µM, first compound 1 µM
# [23] = second compound 3.16 µM, first compound 3.16 µM
# [24] = second compound 3.16 µM, first compound 10 µM
# [25] = second compound 10 µM, first compound 0.0316 µM
# [26] = second compound 10 µM, first compound 0.1 µM
# [27] = second compound 10 µM, first compound 0.316 µM
# [28] = second compound 10 µM, first compound 1 µM
# [29] = second compound 10 µM, first compound 3.16 µM
# [30] = second compound 10 µM, first compound 10 µM
# 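Further: spheroids exposed to agents for seven days before reading.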
smiles,measurement,setting,value
CC(C)CC(NC(=O)C(Cc1ccccc1)NC(=O)c1cnccn1)B(O)O (stereo not given) + CC(CO)NC(=O)c1cc(-c2ccc(Cl)cc2)nn(-c2cnn(C)c2)c1=O,IC50,second compound 0.1 µM,8.47 nM
same,IC50,second compound 0.316 µM,8.01 nM
same,IC50,second compound 1 µM,6.87 nM
same,IC50,second compound 3.16 µM,6.12 nM
same,IC50,second compound 10 µM,4.96 nM
same,"viability, T/C","second compound 0.1 µM, first compound 0.000949 µM",92.4%
same,"viability, T/C","second compound 0.1 µM, first compound 0.003 µM",102%
same,"viability, T/C","second compound 0.1 µM, first compound 0.00949 µM",44.9%
same,"viability, T/C","second compound 0.1 µM, first compound 0.03 µM",0.09%
same,"viability, T/C","second compound 0.1 µM, first compound 0.0949 µM",0.09%
same,"viability, T/C","second compound 0.1 µM, first compound 0.3 µM",0.2%
same,"viability, T/C","second compound 0.316 µM, first compound 0.000949 µM",92.1%
same,"viability, T/C","second compound 0.316 µM, first compound 0.003 µM",93.2%
same,"viability, T/C","second compound 0.316 µM, first compound 0.00949 µM",42.6%
same,"viability, T/C","second compound 0.316 µM, first compound 0.03 µM",0.13%
same,"viability, T/C","second compound 0.316 µM, first compound 0.0949 µM",0.04%
same,"viability, T/C","second compound 0.316 µM, first compound 0.3 µM",0.12%
same,"viability, T/C","second compound 1 µM, first compound 0.000949 µM",102%
same,"viability, T/C","second compound 1 µM, first compound 0.003 µM",100%
same,"viability, T/C","second compound 1 µM, first compound 0.00949 µM",30.6%
same,"viability, T/C","second compound 1 µM, first compound 0.03 µM",0.08%
same,"viability, T/C","second compound 1 µM, first compound 0.0949 µM",0.05%
same,"viability, T/C","second compound 1 µM, first compound 0.3 µM",0.12%
same,"viability, T/C","second compound 3.16 µM, first compound 0.000949 µM",84.5%
same,"viability, T/C","second compound 3.16 µM, first compound 0.003 µM",88.8%
same,"viability, T/C","second compound 3.16 µM, first compound 0.00949 µM",27.5%
same,"viability, T/C","second compound 3.16 µM, first compound 0.03 µM",0.1%
same,"viability, T/C","second compound 3.16 µM, first compound 0.0949 µM",0.13%
same,"viability, T/C","second compound 3.16 µM, first compound 0.3 µM",0.12%
same,"viability, T/C","second compound 10 µM, first compound 0.000949 µM",66.5%
same,"viability, T/C","second compound 10 µM, first compound 0.003 µM",84.2%
same,"viability, T/C","second compound 10 µM, first compound 0.00949 µM",17.2%
same,"viability, T/C","second compound 10 µM, first compound 0.03 µM",0.18%
same,"viability, T/C","second compound 10 µM, first compound 0.0949 µM",0.12%
same,"viability, T/C","second compound 10 µM, first compound 0.3 µM",0.18%
Nc1ccccc1NC(=O)c1ccc(CNC(=O)OCc2cccnc2)cc1 + CC(CO)NC(=O)c1cc(-c2ccc(Cl)cc2)nn(-c2cnn(C)c2)c1=O,IC50,second compound 0.1 µM,2280 nM
same,IC50,second compound 0.316 µM,2240 nM
same,IC50,second compound 1 µM,3930 nM
same,IC50,second compound 3.16 µM,1940 nM
same,IC50,second compound 10 µM,1320 nM
same,"viability, T/C",[1],97.6%
same,"viability, T/C",[2],92.2%
same,"viability, T/C",[3],87.1%
same,"viability, T/C",[4],91%
same,"viability, T/C",[5],33.8%
same,"viability, T/C",[6],3.08%
same,"viability, T/C",[7],102%
same,"viability, T/C",[8],91.4%
same,"viability, T/C",[9],99%
same,"viability, T/C",[10],78.2%
same,"viability, T/C",[11],37.9%
same,"viability, T/C",[12],5%
same,"viability, T/C",[13],88.8%
same,"viability, T/C",[14],96.7%
same,"viability, T/C",[15],105%
same,"viability, T/C",[16],96%
same,"viability, T/C",[17],60.7%
same,"viability, T/C",[18],3.71%
same,"viability, T/C",[19],91.9%
same,"viability, T/C",[20],105%
same,"viability, T/C",[21],101%
same,"viability, T/C",[22],90.8%
same,"viability, T/C",[23],19.7%
same,"viability, T/C",[24],1.49%
same,"viability, T/C",[25],97.1%
same,"viability, T/C",[26],82.9%
same,"viability, T/C",[27],87.9%
same,"viability, T/C",[28],62%
same,"viability, T/C",[29],11.8%
same,"viability, T/C",[30],0.6%
O=C(c1cc(Cc2n[nH]c(=O)c3ccccc23)ccc1F)N1CCN(C(=O)C2CC2)CC1 + CC(CO)NC(=O)c1cc(-c2ccc(Cl)cc2)nn(-c2cnn(C)c2)c1=O,IC50,second compound 0.1 µM,> 10000 nM
same,IC50,second compound 0.316 µM,> 10000 nM
same,IC50,second compound 1 µM,> 10000 nM
same,IC50,second compound 3.16 µM,> 10000 nM
same,IC50,second compound 10 µM,> 10000 nM
same,"viability, T/C",[1],92.2%
same,"viability, T/C",[2],112%
same,"viability, T/C",[3],102%
same,"viability, T/C",[4],103%
same,"viability, T/C",[5],97.6%
same,"viability, T/C",[6],103%
same,"viability, T/C",[7],99.9%
same,"viability, T/C",[8],92.2%
same,"viability, T/C",[9],95.1%
same,"viability, T/C",[10],102%
same,"viability, T/C",[11],91.2%
same,"viability, T/C",[12],104%
same,"viability, T/C",[13],91.1%
same,"viability, T/C",[14],98.9%
same,"viability, T/C",[15],102%
same,"viability, T/C",[16],101%
same,"viability, T/C",[17],89.2%
same,"viability, T/C",[18],109%
same,"viability, T/C",[19],100%
same,"viability, T/C",[20],84%
same,"viability, T/C",[21],105%
same,"viability, T/C",[22],87.6%
same,"viability, T/C",[23],94.9%
same,"viability, T/C",[24],89.7%
same,"viability, T/C",[25],90.1%
same,"viability, T/C",[26],90%
same,"viability, T/C",[27],80.8%
same,"viability, T/C",[28],85%
same,"viability, T/C",[29],85.5%
same,"viability, T/C",[30],67.5%
